Results from US11109593B2, “Isoxazolin-5-one derivative and herbicide containing same as active ingredient” (HOKKO CHEMICAL INDUSTRY CO., LTD., priority 2017, dated 2021).

Assays:
Type in all cases: in vivo
[1] = tested on: broad leaf weeds (Lindernia pyxidaria and Monochoria vaginalis); assay: Test Example 1: herbicidal effect test by treatment of rice paddy soil (immediately after seeding); settings: 120 g/10a active ingredient, dry weight vs untreated area, 14 days after treatment
Summary of the method: (§1)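 Flooded paddy pot test in a glass greenhouse: emulsion diluted in water, dropped at 120 g a.i. per 10 ares just after sowing, water depth kept about 3 cm. Dry-weight reduction relative to untreated plants is scored at 14 days.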

[2] = tested on: Echinochloa crus-galli; assay: as above; settings: 120 g/10a active ingredient, dry weight vs untreated area, 14 days after treatment
Summary of the method: as §1

[3] = tested on: Scirpus juncoides; assay: as above; settings: 120 g/10a active ingredient, dry weight vs untreated area, 14 days after treatment
Summary of the method: as §1

[4] = tested on: Amaranthus viridis; assay: Test Example 4: herbicidal effect test by treatment of leave and stem in dry field farming (seven days after seeding); settings: 120 g/10a active ingredient; emulsion sprayed seven days after seeding; evaluated 14 days after treatment
Description: (§2) This test was conducted in a double system per one agent solution concentration area, and the herbicidal rates (%) were determined by the following equation (Math. 1) on 14 days after the treatment with the agents. Herbicidal Rate (%)={1-(Average Dry Weight (g) of Plant of Treated Area)/(Average Dry Weight (g) of Plant of Untreated Area)}×100 [Math. 1]
(§3) Herbicidal Effect Test by Treatment of Leave and Stem in Dry Field Farming
(§4) Pots with a size of 36 cm^2 were filled with a dry field farming soil (alluvium). The soil of the top layer of 1 cm and seeds of weeds, namely southern crabgrass, Echinochloa crus-galli, Chenopodium album and Amaranthus viridis, 20 seeds each, were evenly mixed, and the top layer was gently pressed. Emulsions prepared using the compounds in Table 6 below according to Formulation Example 5 were diluted with water seven days after seeding, and the water-diluted agent solutions were sprayed to the soil surfaces at a ratio of 100 liters per 10 ares. The converted amount of the applied active ingredient corresponded to 120 g per 10 ares. The herbicidal effects were evaluated by the same standard as that in Test Example 1 on 14 days after the treatment with the agents. […] The compound numbers in Table 6 are the same as those in Table 1 and Table 2 above.

[5] = tested on: Chenopodium album; assay: as above; settings: 120 g/10a active ingredient; emulsion sprayed seven days after seeding; evaluated 14 days after treatment
Description: as §2, §3, §4

[6] = tested on: Echinochloa crus-galli; assay: as above; settings: 120 g/10a active ingredient; emulsion sprayed seven days after seeding; evaluated 14 days after treatment
Description: as §2, §3, §4

[7] = tested on: southern crabgrass; assay: as above; settings: 120 g/10a active ingredient; emulsion sprayed seven days after seeding; evaluated 14 days after treatment
Description: as §2, §3, §4

[8] = tested on: broad leaf weeds (Lindernia pyxidaria and Monochoria vaginalis); assay: Test Example 2: herbicidal effect test by treatment during growing period in paddy rice cultivation (seven days after seeding); settings: 120 g/10a active ingredient, assessed 14 days after treatment, dry weight vs untreated area
Summary of the method: (§5)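 Sow 30 seeds per species (0–1 cm) into puddled, fertilized paddy soil; keep flooded ~3 cm in greenhouse. Day 7 after seeding: drop water-diluted emulsion, 120 g a.i./10 ares. Harvest 14 d post-treatment; compare dry weight with untreated pots (duplicate).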

[9] = tested on: Echinochloa crus-galli; assay: as above; settings: 120 g/10a active ingredient, assessed 14 days after treatment, dry weight vs untreated area
Summary of the method: as §5

[10] = tested on: Scirpus juncoides; assay: as above; settings: 120 g/10a active ingredient, assessed 14 days after treatment, dry weight vs untreated area
Summary of the method: as §5

SMILES: Cc1c(Cc2cc(F)ccc2N(S(=O)(=O)C(F)(F)F)S(=O)(=O)C(F)(F)F)c(=O)on1Cc1ccccc1 [Compound 1-32]
- Herbicidal rate (%) Lindernia pyxidaria [1]: 80%
- Herbicidal rate (%) Monochoria vaginalis [1]: 90%
- Herbicidal rate (%) Echinochloa crus-galli [2]: 80%
- Herbicidal rate (%) Scirpus juncoides [3]: 90%
- herbicidal effect (herbicidal rate), Amaranthus viridis [4]: 40%
- herbicidal effect (herbicidal rate), Chenopodium album [5]: 60%
- herbicidal effect (herbicidal rate), Echinochloa crus-galli [6]: 0%
- herbicidal effect (herbicidal rate), southern crabgrass [7]: 40%
- Herbicidal rate (%) Lindernia pyxidaria [8]: 80%
- Herbicidal rate (%) Monochoria vaginalis [8]: 90%
- Herbicidal rate (%) Echinochloa crus-galli [9]: 90%
- Herbicidal rate (%) Scirpus juncoides [10]: 90%

SMILES: CC(C)Cn1oc(=O)c(Cc2ccccc2NS(=O)(=O)C(F)(F)F)c1C(F)(F)F [Compound 1-81]
- Herbicidal rate (%) Lindernia pyxidaria [1]: 80%
- Herbicidal rate (%) Monochoria vaginalis [1]: 80%
- Herbicidal rate (%) Echinochloa crus-galli [2]: 90%
- Herbicidal rate (%) Scirpus juncoides [3]: 90%
- herbicidal effect (herbicidal rate), Amaranthus viridis [4]: 0%
- herbicidal effect (herbicidal rate), Chenopodium album [5]: 0%
- herbicidal effect (herbicidal rate), Echinochloa crus-galli [6]: 90%
- herbicidal effect (herbicidal rate), southern crabgrass [7]: 80%
- Herbicidal rate (%) Lindernia pyxidaria [8]: 60%
- Herbicidal rate (%) Monochoria vaginalis [8]: 80%
- Herbicidal rate (%) Echinochloa crus-galli [9]: 80%
- Herbicidal rate (%) Scirpus juncoides [10]: 90%

SMILES: Cc1c(Cc2ccccc2NS(=O)(=O)C(F)(F)F)c(=O)on1CCCl [Compound 1-133]
- Herbicidal rate (%) Lindernia pyxidaria [1]: 100%
- Herbicidal rate (%) Monochoria vaginalis [1]: 100%
- Herbicidal rate (%) Echinochloa crus-galli [2]: 80%
- Herbicidal rate (%) Scirpus juncoides [3]: 100%
- herbicidal effect (herbicidal rate), Amaranthus viridis [4]: 0%
- herbicidal effect (herbicidal rate), Chenopodium album [5]: 40%
- herbicidal effect (herbicidal rate), Echinochloa crus-galli [6]: 90%
- herbicidal effect (herbicidal rate), southern crabgrass [7]: 40%
- Herbicidal rate (%) Lindernia pyxidaria [8]: 60%
- Herbicidal rate (%) Monochoria vaginalis [8]: 80%
- Herbicidal rate (%) Echinochloa crus-galli [9]: 60%
- Herbicidal rate (%) Scirpus juncoides [10]: 80%

SMILES: Cc1c(Cc2ccccc2NS(=O)(=O)C(F)(F)F)c(=O)on1CC(F)(F)F [Compound 1-134]
- Herbicidal rate (%) Lindernia pyxidaria [1]: 60%
- Herbicidal rate (%) Monochoria vaginalis [1]: 80%
- Herbicidal rate (%) Echinochloa crus-galli [2]: 80%
- Herbicidal rate (%) Scirpus juncoides [3]: 80%
- herbicidal effect (herbicidal rate), Amaranthus viridis [4]: 50%
- herbicidal effect (herbicidal rate), Chenopodium album [5]: 40%
- herbicidal effect (herbicidal rate), Echinochloa crus-galli [6]: 90%
- herbicidal effect (herbicidal rate), southern crabgrass [7]: 60%
- Herbicidal rate (%) Lindernia pyxidaria [8]: 40%
- Herbicidal rate (%) Monochoria vaginalis [8]: 80%
- Herbicidal rate (%) Echinochloa crus-galli [9]: 80%
- Herbicidal rate (%) Scirpus juncoides [10]: 80%

SMILES: CSCCn1oc(=O)c(Cc2ccccc2NS(=O)(=O)C(F)(F)F)c1C [Compound 1-162]
- Herbicidal rate (%) Lindernia pyxidaria [1]: 100%
- Herbicidal rate (%) Monochoria vaginalis [1]: 100%
- Herbicidal rate (%) Echinochloa crus-galli [2]: 100%
- Herbicidal rate (%) Scirpus juncoides [3]: 100%
- herbicidal effect (herbicidal rate), Amaranthus viridis [4]: 50%
- herbicidal effect (herbicidal rate), Chenopodium album [5]: 60%
- herbicidal effect (herbicidal rate), Echinochloa crus-galli [6]: 90%
- herbicidal effect (herbicidal rate), southern crabgrass [7]: 60%
- Herbicidal rate (%) Lindernia pyxidaria [8]: 70%
- Herbicidal rate (%) Monochoria vaginalis [8]: 80%
- Herbicidal rate (%) Echinochloa crus-galli [9]: 90%
- Herbicidal rate (%) Scirpus juncoides [10]: 80%
